These are literature values, as cited in patent publication US7115565B2, “Chemotherapeutic microemulsion compositions of paclitaxel with improved oral bioavailability” (Pharmacia & Upjohn Company, priority 2001, dated 2006).

The conditions of the data set: reported in the background.

Structures are written as SMILES.

As for `CC(=O)O[C@H]1C(=O)[C@@]2(C)[C@H]([C@H](OC(=O)c3ccccc3)[C@]3(O)C[C@H](OC(=O)[C@H](O)[C@@H](NC(=O)c4ccccc4)c4ccccc4)C(C)=C1C3(C)C)[C@]1(OC(C)=O)CO[C@@H]1C[C@@H]2O` [Paclitaxel], the oral bioavailability result is “very low”.
